Experiments:
Format in all cases: biochemical
[1] = tested on: Liver acetone powder from Dog; assay: Hydrolysis of ketoprofen esters by dog liver acetone powder
Experimental: (§1) A solution of 50 mg of ketoprofen methyl ester in 0.2 ml of ethanol was added to 10 mg of each of liver acetone powder from various animal sources (described in Table 1) in 5 ml of 0.1M potassium phosphate buffer (pH 7.0) After shaking at room temperature for 24 hours, the reaction mixtures were acidified to pH 2.0 with 6(N) HCl and extracted with 10 ml of ethyl acetate. A portion of the ethyl acetate extract was analyzed by HPLC on a Partisil 5 ODS-3 RAC column (9.4 mm×100 mm, Whatman) using a mixture of methanol and 10 mM ammonium dihydrogen phospate (9:1) and monitored by UV at 254 nm to determine the percentages of acid produced in the reaction.
(§2) To determine the percentage of R- and S-acid, a portion of the ethyl acetate extract was converted to the amide derivative of the acid produced with R(+)-1-phenylethylamine as follows. The ethyl acetate extract (5 ml) was dried over sodium sulfate, filtered and cooled to 0° C. To the cold solution was added 0.2 ml of N-methylmorpholine followed by 0.2 ml of isobutyl chloroformate. After gentle shaking at 0° C. for 10 minutes, 0.2 ml of R(+)-1-phenylethylamine was added and the shaking was continued at 0° C. for 5 minutes and at room temperature for another 5 minutes. The reaction mixture was washed successively with water (5 ml), 1(N) HCl (5 ml), and water (5 ml) to provide the amide derivative in ethyl acetate solution. The ethyl acetate solution of the amide derivative was then analyzed by HPLC on the same column and same solvent mixture but with a different composition, i.e., a ratio of 6:4, and monitored by UV to determine the percentages of R- acid and S-acids produced by hydrolysis. The enantiomeric excess (EE) is defined as the difference in percent between the percent R- acid and the percent S-acid, the higher enantiomer being reported in the parenthesis in Table I.
(§3) Several esters of ketoprofen (0.2 millimole) with various alkyl groups of varying chain length were hydrolyzed using liver acetone powders from bovine, calf and dog by the procedure described in Example 1. The reaction mixtures were analyzed by the same procedures as described in Example 1 and the results obtained are summarized in Table II.

[2] = tested on: Liver acetone powder from Porcine; assay: Hydrolysis of ketoprofen methyl ester by porcine liver acetone powder; details: Porcine powder 10 mg, 50 mg ester, pH 7.0, room temperature, 24 hours
Experimental: as §1

[3] = tested on: Liver acetone powder from Chicken; assay: Hydrolysis of ketoprofen methyl ester by chicken liver acetone powder
Experimental: as §1, §2

[4] = tested on: Liver acetone powder from Bovine; assay: Hydrolysis of ketoprofen esters by bovine liver acetone powder
Experimental: as §1, §2, §3

[5] = Dog powder 10 mg, 50 mg ester, pH 7.0, room temperature, 24 hours
[6] = Dog powder, 0.2 millimole ester, procedure of Example 1
[7] = Chicken powder 10 mg, 50 mg ester, pH 7.0, room temperature, 24 hours
[8] = Bovine powder 10 mg, 50 mg ester, pH 7.0, room temperature, 24 hours
[9] = Bovine powder, 0.2 millimole ester, procedure of Example 1

`COC(=O)C(C)c1cccc(C(=O)c2ccccc2)c1` (stereo not drawn) [Methyl Ester of Ketoprofen, ketoprofen methyl ester] was tested. Which “Percentage of Acid R-acid” value [1, 5] did it give?
Its value is 87.1%.

And the “Percentage of Acid S-acid” value [1, 5]?
Its value is 12.9%.

What about the Percentage of acid [1, 5] of the same compound?
The Percentage of acid was 8.0%.

And the “Acid Produced (%)” value [1, 6]?
Its value is 6.2%.

What about the “EE(%) of R-Acid” value [1, 6] of the same compound?
The value was 76.6%.

And the “Percent of Acid R-Acid” value [1, 6]?
Its value is 88.3%.

What about the “Percent of Acid S-Acid” value [1, 6] of the same compound?
Its value is 11.7%.

And the “Percentage EE of acid (R or S)” value ([1]; Dog powder, Table 1, higher enantiomer (R))?
The value was 74.2%.

What about the Percentage of acid [2] of the same compound?
Its Percentage of acid is 0.9%.

What about the “Percentage of Acid R-acid” value [3, 7] of the same compound?
Its value is 52.7%.

What about the “Percentage of Acid S-acid” value [3, 7] of the same compound?
The value was 47.3%.

What about the Percentage of acid [3, 7] of the same compound?
Its Percentage of acid is 8.1%.

And the “Percentage EE of acid (R or S)” value ([3]; Chicken powder, Table 1, higher enantiomer (R))?
Its value is 5.4%.

What about the “Percentage of Acid R-acid” value [4, 8] of the same compound?
Its value is 71.2%.

And the “Percentage of Acid S-acid” value [4, 8]?
The value was 28.8%.

What about the Percentage of acid [4, 8] of the same compound?
The Percentage of acid was 4.3%.

And the “Acid Produced (%)” value [4, 9]?
Its value is 4.4%.

And the “EE(%) of R-Acid” value [4, 9]?
Its value is 47.2%.

And the “Percent of Acid R-Acid” value [4, 9]?
The value was 73.6%.

And the “Percent of Acid S-Acid” value [4, 9]?
Its value is 26.4%.

What about the “Percentage EE of acid (R or S)” value ([4]; Bovine powder, Table 1, higher enantiomer (R)) of the same compound?
The value was 42.4%.

Reference: US5175100A, “Stereospecific resolution by hydrolysis of esters of 2-arylpropionic acids by liver enzymes” (Rhone-Poulenc, Inc., priority 1991, dated 1992)
